Results from US5278181A, “Soluble alkyl[5-[amino (phenyl)methyl]-1H-benzimidazol-2-yl] carbamate anthelmintics” (priority 1992, dated 1994).
Values after ≈ are worked out from the molar mass of the structure shown.

What was measured:
Acanthocheilonema viteae = assay: Antifilarial dual infection screen in jirds: adult A. viteae burden and microfilaremia; type: in vivo, in Mongolian jirds; conditions: for % Macrofilarial reduction, A. viteae: day 56
Source text: (§1) Dual infections of the filarial worms Brugia pahangi and Acanthocheilonema viteae in jirds are used routinely for antifilarial screening [McCall, J. W., McTier, T. L., and Rowan, S. J., "In vivo models for evaluating potential antifilarial agents", Onchocerciasis/Filariasis (Proceedings of a Symposium sponsored by the World Health Organization), Kalamazoo, Mich., Apr. 8-10, 23-24 (1986)].
(§2) For this dual infection screen, male Mongolian jirds weighing 50-60 g are infected SC with 10 (5 male and 5 female) adult A. viteae, transplanted under sodium pentobarbital anesthesia (48 mg/kg) from donor hamsters infected SC 8 weeks earlier. Two weeks later, 20 (10 male and 10 female) adult B. pahangi, taken from donor jirds infected IP 8 weeks earlier, are transplanted into the peritoneal cavity of each jird under sodium pentobarbital anesthesia. After an additional week, when the jirds have acceptable levels of microfilaremia, they are randomly allocated to treatment groups of 3 animals each and a nontreated group of 4-6 animals. Microfilaremia is determined on days 0 (just prior to the first dose), 4 and 56 post-treatment. Unless indicated otherwise, compounds are suspended in hydroxyethylcellulose (0.5%) - Tween 80 (0.1%) and administered SC at 100 mg/kg/day for 5 consecutive days. All jirds are killed on day 56 post-treatment to determine the effects of drugs on adults of A. viteae and B. pahangi. Live worms are identified as to species, noted as to sex, and counted. The number of dead and/or encapsulated worms is also recorded. A reduction of ≥80% in microfilaremia or ≥50% in adult worm burden (either species) compared with pre-treatment microfilaremia or non-treated control worm burden, respectively, is considered to be significant. For secondary testing with this dual infection screen, groups of 7 animals each are used. For oral dosing, drugs are dissolved or suspended in hydroxyethylcellulose - Tween 80 and administered by gavage.

Brugia pahangi = assay: Antifilarial dual infection screen in jirds: adult B. pahangi burden; type: in vivo, in Mongolian jirds; conditions: day 56
Source text: as §1, §2

adult worms = conditions: background art; cited from earlier work
microfilariae = conditions: background art; cited from earlier work
[1] = background art; cited from earlier work
[2] = background art; cited from earlier work; remark: listed apart in the source
Aqueous solubility = conditions: water

## COC(=O)Nc1nc2cc(C(N)c3ccccc3)ccc2[nH]1.Cl.Cl (racemic) [Example 4, Methyl (±)-[5-[Amino (Phenyl)Methyl]-1H-Benzimidazol-2-yl]Carbamate Dihydrochloride Salt]
Acanthocheilonema viteae; 3.13 mg/kg/day × 5 days, SC
  % Microfilarial reduction, A. viteae, Day 4: 75%
  % Microfilarial reduction, A. viteae, Day 56: 50%
  % Macrofilarial reduction, A. viteae: 9%
Acanthocheilonema viteae; 6.25 mg/kg/day × 5 days, SC
  % Microfilarial reduction, A. viteae, Day 4: 67%
  % Microfilarial reduction, A. viteae, Day 56: 67%
  % Macrofilarial reduction, A. viteae: 27%
Acanthocheilonema viteae; 12.5 mg/kg/day × 5 days, SC
  % Microfilarial reduction, A. viteae, Day 4: 88%
  % Microfilarial reduction, A. viteae, Day 56: 50%
  % Macrofilarial reduction, A. viteae: 31%
Acanthocheilonema viteae; 100 mg/kg/day × 5 days, oral
  % Microfilarial reduction, A. viteae, Day 4: 91%
  % Microfilarial reduction, A. viteae, Day 56: 91%
  % Macrofilarial reduction, A. viteae: 81%
Acanthocheilonema viteae; 200 mg/kg/day × 5 days, oral
  % Microfilarial reduction, A. viteae, Day 4: 67%
  % Microfilarial reduction, A. viteae, Day 56: 100%
  % Macrofilarial reduction, A. viteae: 100%
Brugia pahangi; 3.13 mg/kg/day × 5 days, SC
  % Macrofilarial reduction, B. pahangi: 15%
Brugia pahangi; 6.25 mg/kg/day × 5 days, SC
  % Macrofilarial reduction, B. pahangi: 14%
Brugia pahangi; 12.5 mg/kg/day × 5 days, SC
  % Macrofilarial reduction, B. pahangi: 18%
Brugia pahangi; 100 mg/kg/day × 5 days, oral
  % Macrofilarial reduction, B. pahangi: 30%
Brugia pahangi; 200 mg/kg/day × 5 days, oral
  % Macrofilarial reduction, B. pahangi: 100%

## Cc1ccc(C(=O)Nc2ccc(S(=O)(=O)O)c3cc(S(=O)(=O)O)cc(S(=O)(=O)O)c23)cc1NC(=O)c1cccc(NC(=O)Nc2cccc(C(=O)Nc3cc(C(=O)Nc4ccc(S(=O)(=O)O)c5cc(S(=O)(=O)O)cc(S(=O)(=O)O)c45)ccc3C)c2)c1 [Suramin]
Adult worms
  activity against adult worms (macrofilaricidal): macrofilaricidal action

## CCN(CC)C(=O)N1CCN(C)CC1 [Diethylcarbamazine]
Adult worms
  activity against adult worms (macrofilaricidal): kill adults of lymphatic filariae in some, but far from all patients
microfilariae
  activity against microfilariae: has the ability to destroy microfilariae

## COC(=O)Nc1nc2ccc(C(=O)c3ccccc3)cc2[nH]1 [mebendazole]
[1]
  pain and inflammation on injection: cause pain and inflammation on injection
[2]
  absorption: poorly absorbed

## CC[C@H](C)[C@H]1O[C@]2(CC[C@@H]1C)C[C@@H]1C[C@@H](C/C=C(\C)[C@@H](O[C@H]3C[C@H](OC)[C@@H](O[C@H]4C[C@H](OC)[C@@H](O)[C@H](C)O4)[C@H](C)O3)[C@@H](C)/C=C/C=C3\CO[C@@H]4[C@H](O)C(C)=C[C@@H](C(=O)O1)[C@]34O)O2 [ivermectin]
Adult worms
  activity against adult worms (macrofilaricidal): without effect on adult worms
microfilariae
  activity against microfilariae: outstanding activity against microfilariae

## COC(=O)Nc1nc2cc(C(=O)c3ccc(F)cc3)ccc2[nH]1 [Flubendazole, methyl [5-(4-fluorobenzoyl)-1H-benzimidazol-2-yl]carbamate]
[1]
  pain and inflammation on injection: cause pain and inflammation on injection
[2]
  absorption: poorly absorbed
Aqueous solubility
  solubility: 45 µg/mL (≈ 144 µM)

## COC(=O)Nc1nc2cc(C(N)c3ccccc3)ccc2[nH]1 (racemic) [Example 3, Methyl (±)-[5-[Amino (Phenyl)Methyl]-1H-Benzimidazol-2-yl]Carbamate]
Acanthocheilonema viteae; 100 mg/kg/day × 5 days, oral
  % Microfilarial reduction, A. viteae, Day 4: 83%
  % Microfilarial reduction, A. viteae, Day 56: 83%
  % Macrofilarial reduction, A. viteae: 80%
Brugia pahangi; 1.56 mg/kg/day × 5 days, SC
  % Macrofilarial reduction, B. pahangi: 23%
Brugia pahangi; 6.25 mg/kg/day × 5 days, SC
  % Macrofilarial reduction, B. pahangi: 0%
Brugia pahangi; 25 mg/kg/day × 5 days, SC
  % Macrofilarial reduction, B. pahangi: 75%
Brugia pahangi; 100 mg/kg/day × 5 days, SC
  % Macrofilarial reduction, B. pahangi: 100%
Brugia pahangi; 100 mg/kg/day × 5 days, oral
  % Macrofilarial reduction, B. pahangi: 52%
